Experimental data taken from US7985745B2, “Method for pain treatment” (Abbott Laboratories, priority 2006, dated 2011).

How the values were obtained:
neuropathic pain = assay: Chung model: L5/L6 spinal nerve ligation, mechanical allodynia by von Frey filaments; assay type: in vivo, rat; settings: 30 minutes before testing
Procedure: Animals were prepared for testing, by use of a surgical procedure that induces neuropathic pain in one paw. Male Sprague Dawley rats were purchased from Charles River (Portage, Mich.). Prior to surgery, animals were housed in groups and maintained in a temperature-regulated environment. Following nerve ligation surgery, animals were housed in groups, and had access to food and water ad libitum.
The L5 and L6 spinal nerves of anesthetized rats were tightly ligated in a manner described previously (see Kim and Chung, Pain (1992) vol. 50 pp. 355-363). An incision was made on the dorsal portion of the hip and the muscle was blunt-dissected to reveal the spinal processes. The L6 transverse process was removed, and the left side L5 and L6 spinal nerves were tightly ligated with 5.0 braided silk suture. The wound was cleaned, the membrane sewn with 4.0 dissolvable Vicryl suture and the skin closed with wound clips. The paw affected by the surgical procedure (the left paw) develops an allodynic response, a hypersensitivity to mechanical and other stimuli; neuropathic pain is assessed as an increased sensitivity in the surgically affected (left) allodynic paw compared to the control paw on the right side, and measured by comparing the response of the (left side) allodynic paw to the response of the unaffected right side control paw.
For the assessment of neuropathic pain, mechanical allodynia in the affected paw of animals that had undergone spinal nerve ligation was evaluated using testing with von Frey filaments. As described previously by S. R. Chaplan, et al (“Quantitative assessment of tactile allodynia in the rat paw” J. Neurosci. Meth. (1994) vol. 53 pp. 55-63), two weeks following surgery rats were acclimated to a testing box constructed of plexiglass with a wire mesh floor which allowed access to the plantar surface of the animal's hindpaws. Using an Up-Down method (Dixon, Annual Rev. Pharmacol. Toxicol. (1980) vol. 20, pp. 441-462; Chaplan et al. “Quantitative assessment of tactile allodynia in the rat paw” J. Neuroscience Methods (1994) vol. 53 pp. 55-63), von Frey filaments of increasing stiffness were applied to the plantar surface of the hindpaws and the withdrawal response of the animals was observed; for the surgically affected paw with neuropathic pain (the left side paw) the baseline level of allodynia has a withdrawal threshold of ≦4 g of pressure. By comparison, for the control paw without allodynia (in this case the right side paw), the typical withdrawal pressure is around 15 g. Representative compounds of the invention, administered intraperitoneally 30 minutes before testing, are able to reduce the symptoms of neuropathic pain and induce a dose-dependent increase in the withdrawal threshold for allodynic (left side) limb, up to a maximum effect of 15 g. The efficacy of the compound in reducing neuropathic pain at different doses is determined by comparing response in the surgery-affected paw versus the response in the control paw. This is expressed as the MPE (maximum percent effect), or 100 times the withdrawal threshold of the allodynic (left side) divided by the withdrawal threshold of the control (right side).

[1] = tested on: mechanical allodynia after skin incision; assay: Surgical skin incision model, mechanical allodynia by von Frey hair; assay type: in vivo, rat
Procedure: This is a surgical skin incision model (Joshi, et al. Pain 123 (2006) 75-82). Animals (rats) were prepared for testing by subjecting them to a surgical procedure carried out under sterile conditions, where the plantaris muscle was elevated and incised longitudinally with the origin and insertion of the muscle remaining intact. The skin was then closed with two mattress sutures (e.g. 5-0 nylon sutures). After surgery, animals were allowed to recover on a warming plate and housed individually in cages with soft bedding. […] Animals were tested for mechanical allodynia using von Frey hair mechanical stimulation 2, 24, and 48 h after surgery as described for the Chung model.

inflammatory pain = assay: Carrageenan-induced thermal hyperalgesia, hotbox assay; assay type: in vivo; settings: 90 minutes after carrageenan, tested 30 minutes after dosing
Procedure: To assess the effectiveness of representative compounds of the invention against acute model inflammatory pain, animals were tested in an acute model of carrageenan-induced thermal hyperalgesia (see for example, Honore, et al. Behavioural Brain Research 167 (2006) 355-364; Porreca, et al. Journal of Pharmacology and Experimental Therapeutics (2006) vol. 318 pp. 195-205). Carrageenan was injected into the test paw of the animal, and after 90 minutes, the test drug was administered by intraperitoneal dosing. The effect on thermal hyperalgesia was assessed in a hotbox assay which was done 30 minutes after the intraperitoneal dosing of the test drug, and the MPE (maximal percent effect) reported by comparison to the control paw (not injected with carrageenan), according to 100 times the withdrawal latency of the carrageenan injected paw (in seconds) divided by the withdrawal latency of the control (not injected with carrageenan) paw.

tactile allodynia = assay: Complete Freund's adjuvant model, tactile allodynia by von Frey filaments; assay type: in vivo, rat; settings: 48 hours after CFA, mechanical stimulus
Procedure: In a separate method of assessing the effectiveness of representative compounds of the invention against hyperalgesia, animals were tested in the acute model of adjuvant-induced hyperalgesia using Complete Freund's Adjuvant (CFA) as described above, but in this case, tactile allodynia to a mechanical stimulus was measured using calibrated von Frey filaments (Stoelting, Wood Dale, Ill.). Animals were prepared as described above: a solution of Complete Freund's adjuvant (150 microliters of a 50% aqueous solution, Sigma Chemical Company, St. Louis, Mo.) was injected into the plantar surface of test paw of the animal (rat). Rats so injected develop a hyperalgesia to mechanical (touch) stimulation which is assessed 48 hours after injection of the Complete Freund's adjuvant. Withdrawal threshold was determined by increasing and decreasing stimulus intensity, and estimated using the Dixon's up-down method (Dixon, Annual Rev. Pharmacol. Toxicol. (1980) vol. 20, pp. 441-462; Chaplan et al. “Quantitative assessment of tactile allodynia in the rat paw” J. Neuroscience Methods (1994) vol. 53 pp. 55-63). Rats were placed into inverted individual plastic containers (20×12.5×20 cm) on top of a suspended wire mesh with a 1 cm^2 grid to provide access to the ventral side of the hind paws, and acclimated to the test chambers for 20 min. The von Frey filaments were presented perpendicularly to the plantar surface of the selected hind paw, and then held in this position for approximately 8 seconds with enough force to cause a slight bend in the filament. Positive responses included an abrupt withdrawal of the hind paw from the stimulus, or flinching behavior immediately following removal of the stimulus. Withdrawal threshold was determined using an up-down procedure (Dixon, Annual Rev. Pharmacol. Toxicol. (1980) vol. 20, pp. 441-462; Chaplan et al. “Quantitative assessment of tactile allodynia in the rat paw” J. Neuroscience Methods (1994) vol. 53 pp. 55-63). The strength of the maximum filament used for von Frey testing was 15.0 g.

CN1CCN(c2cc(-c3ccc(C#N)cc3)nc(N)n2)CC1.O=C(O)/C=C\C(=O)O [Example 1, 4-(2-Amino-6-(4-methylpiperazin-1-yl)pyrimidin-4-yl)benzonitrile, maleate]
MPE (neuropathic pain; 30 micromole/kg i.p.): 14% | MPE (neuropathic pain; 100 micromole/kg i.p.): 44% | MPE (neuropathic pain; 300 micromole/kg i.p.): 77% | MPE (neuropathic pain; 500 micromole/kg i.p.): 97% | MPE ([1]; 30 micromole/kg i.p.): 31% | MPE ([1]; 100 micromole/kg i.p.): 65% | MPE (inflammatory pain; 30 micromole/kg i.p.): 36% | MPE (inflammatory pain; 100 micromole/kg i.p.): 100% | MPE (tactile allodynia; 30 micromole/kg i.p.): 42% | MPE (tactile allodynia; 100 micromole/kg i.p.): 63%

CN1CCN(C(=O)c2cc3cc(Cl)ccc3[nH]2)CC1 [Example 3, reference compound]
MPE (neuropathic pain; 100 micromole/kg i.p.): 16% | MPE (neuropathic pain; 250 micromole/kg i.p.): 50% | MPE (neuropathic pain; 500 micromole/kg i.p.): 94% | MPE ([1]; 250 micromole/kg i.p.): 46% | MPE ([1]; 500 micromole/kg i.p.): 79% | MPE (inflammatory pain; 30 micromole/kg i.p.): 23% | MPE (inflammatory pain; 100 micromole/kg i.p.): 49% | MPE (inflammatory pain; 300 micromole/kg i.p.): 96% | MPE (tactile allodynia; 30 micromole/kg i.p.): 55% | MPE (tactile allodynia; 300 micromole/kg i.p.): 71%

CNC1CN(c2nc(N)nc3c2CCCc2ccccc2-3)C1 [Example 6, 4-(3-Methylamino-azetidin-1-yl)-6,7-dihydro-5H-benzo[6,7]cyclohepta[1,2-d]pyrimidin-2-ylamine]
MPE (neuropathic pain; 100 micromole/kg i.p.): 36% | MPE (neuropathic pain; 300 micromole/kg i.p.): 78% | MPE ([1]; 30 micromole/kg i.p.): 21% | MPE ([1]; 100 micromole/kg i.p.): 69% | MPE (inflammatory pain; 100 micromole/kg i.p.): 41% | MPE (tactile allodynia; 30 micromole/kg i.p.): 35% | MPE (tactile allodynia; 100 micromole/kg i.p.): 49%
